The compounds below were run against T1, hM5 (Homo sapiens, UniProt P08912) (assay: Calcium mobilization concentration-response (IC50 vs EC80 acetylcholine), CHO hM5). Conditions: CELL LINE hM5; calcium mobilization, EC80 acetylcholine addition; read-out: IC50.
T1 construct: expressed in transfected cells
T1 sequence (P08912 1-532): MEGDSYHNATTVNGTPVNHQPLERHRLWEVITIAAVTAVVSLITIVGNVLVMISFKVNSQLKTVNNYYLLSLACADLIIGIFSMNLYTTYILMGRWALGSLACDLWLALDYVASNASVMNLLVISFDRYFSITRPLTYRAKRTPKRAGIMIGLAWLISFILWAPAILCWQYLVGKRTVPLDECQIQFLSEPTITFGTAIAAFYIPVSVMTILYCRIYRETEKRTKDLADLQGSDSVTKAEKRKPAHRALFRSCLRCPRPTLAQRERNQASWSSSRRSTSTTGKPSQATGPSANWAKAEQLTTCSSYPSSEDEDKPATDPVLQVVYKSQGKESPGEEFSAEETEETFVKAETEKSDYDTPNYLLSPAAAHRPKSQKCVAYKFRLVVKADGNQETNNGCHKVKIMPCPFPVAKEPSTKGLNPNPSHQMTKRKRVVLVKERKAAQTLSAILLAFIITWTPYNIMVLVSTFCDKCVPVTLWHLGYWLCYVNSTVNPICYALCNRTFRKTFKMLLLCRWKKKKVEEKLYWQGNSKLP
Type: cell-based
Method in brief: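 IC50 values derive from percent maximal acetylcholine response after an EC80 ACh addition, measured as kinetic calcium fluorescence (static ratio, max−min). Test compounds were added 140 s before agonist. Cells: stable hM5-CHO in HEPES-buffered HBSS with 2.5 mM probenecid, pH 7.4; ≥3 independent triplicate determinations.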

Going from `Cc1c(S(=O)(=O)N2CCC(c3ccc4ncnn4c3)CC2)cnn1C` [Compound 288, 6(1-((1,5-dimethyl-1H-pyrazol-4-yl)sulfonyl)piperidin-4-yl)-[1,2,4]triazolo[1,5-a]pyridine] to `Cc1c(S(=O)(=O)N2CCC(c3cn4ncnc4cc3Cl)CC2)cnn1C` [Compound 291, 7-chloro-6-(1-((1,5-dimethyl-1-pyrazol-4-yl)sulfonyl)piperidin-4-yl)-[1,2,4]triazolo[1,5-a]pyridine], the IC50 falls from 358 nM to 36 nM (9.9-fold).

Compared with `Cc1nc2[nH]cnc2cc1C1CCN(S(=O)(=O)c2cnn3c2CCC3)CC1` [Compound 289, 6-(1-((5,6-dihydro-4H-pyrrolo[1,2-b]pyrazol-3-yl)sulfonyl)piperidin-4-yl)-5-methyl-3H-imidazo[4,5-b]pyridine], `O=S(=O)(c1cnn2c1CCC2)N1CCC(c2cn3ncnc3cc2Cl)CC1` [Compound 293, 7-chloro-6-(1-((5,6-dihydro-4H-pyrrolo[1,2-b]pyrazol-3-yl)sulfonyl)piperidin-4-yl)-[1,2,4]triazolo[1,5-a]pyridine] is lower in IC50: over 10000 nM for the first, 12 nM for the second.

First: Cc1cc2ncnn2cc1C1CCN(S(=O)(=O)c2cccc3nn(C)cc23)CC1 [Compound 290, 7-methyl-6-(1-((2-methyl-2H-indazol-4-yl)sulfonyl)piperidin-4-yl)-[1,2,4]triazolo[1,5-a]pyridine]
Second: Cc1cc2ncnn2cc1C1CCN(S(=O)(=O)c2cn(C)c(C)n2)CC1 [Compound 320, 6-(1-((1,2-dimethyl-1H-imidazol-4-yl)sulfonyl)piperidin-4-yl)-7-methyl-[1,2,4]triazolo[1,5-a]pyridine]
The IC50 of the first is 6-fold lower: 1200 nM for the first, 7200 nM for the second.

Going from `Cc1ncc(S(=O)(=O)N2CCC(c3cn4ncnc4cc3Cl)CC2)n1C` [Compound 294, 7-chloro-6-(1-((1,2-dimethyl-1H-imidazol-5-yl)sulfonyl)piperidin-4-yl)-[1,2,4]triazolo[1,5-a]pyridine] to `CCc1cc2ncnn2cc1C1CCN(S(=O)(=O)c2cnc(C)n2C)CC1` [Compound 300, 6-(1-((1,2-dimethyl-1H-imidazol-5-yl)sulfonyl)piperidin-4-yl)-7-ethyl-[1,2,4]triazolo[1,5-a]pyridine], the IC50 rises from 22 nM to 227 nM (10-fold). The first is the more potent here.

Going from `Cn1ncc(S(=O)(=O)N2CCC(c3cn4ncnc4cc3Cl)CC2)c1C(F)F` [Compound 295, 7-chloro-6-(1-((5-(difluoromethyl)-1-methyl-1H-pyrazol-4-yl)sulfonyl)piperidin-4-yl)-[1,2,4]triazolo[1,5-a]pyridine] to `CCc1cc2ncnn2cc1C1CCN(S(=O)(=O)c2cnn(C)c2C(F)F)CC1` [Compound 301, 6-(1-((5-(difluoromethyl)-1-methyl-1H-pyrazol-4-yl)sulfonyl)piperidin-4-yl)-7-ethyl-[1,2,4]triazolo[1,5-a]pyridine], the IC50 rises from 19 nM to 85 nM (4.5-fold). The first is the more potent here.

Compared with `CCc1cc2ncnn2cc1C1CCN(S(=O)(=O)c2cnn(C)c2C)CC1` [Compound 297, 6-(1-((1,5-dimethyl-1H-pyrazol-4-yl)sulfonyl)piperidin-4-yl)-7-ethyl-[1,2,4]triazolo[1,5-a]pyridine], `CCc1cc2ncnn2cc1C1CCN(S(=O)(=O)c2cnn3c2CCC3)CC1` [Compound 299, 6-(1-((5,6-dihydro-4H-pyrrolo[1,2-b]pyrazol-3-yl)sulfonyl)piperidin-4-yl)-7-ethyl-[1,2,4]triazolo[1,5-a]pyridine] is 2.8-fold lower in IC50: 73 nM for the first, 26 nM for the second. The second is the more potent here.

Compared with `CCc1cc2ncnn2cc1C1CCN(S(=O)(=O)c2cnn3c2CCCC3)CC1` [Compound 302, 7-ethyl-6-(1-((4,5,6,7-tetrahydropyrazolo[1,5-a]pyridin-3-yl)sulfonyl)piperidin-4-yl)-[1,2,4]triazolo[1,5-a]pyridine], `Cc1c(C2CCN(S(=O)(=O)c3cnn4c3CCCC4)CC2)cn2ncnc2c1F` [Compound 305, 8-fluoro-7-methyl-6-(1-((4,5,6,7-tetrahydropyrazolo[1,5-a]pyridin-3-yl)sulfonyl)piperidin-4-yl)-[1,2,4]triazolo[1,5-a]pyridine] is 4.5-fold lower in IC50: 54 nM for the first, 12 nM for the second.

Going from `Cc1c(C2CCN(S(=O)(=O)c3cnc(C)n3C)CC2)cn2ncnc2c1F` [Compound 304, 6-(1-((1,2-dimethyl-1H-imidazol-5-yl)sulfonyl)piperidin-4-yl)-8-fluoro-7-methyl-[1,2,4]triazolo[1,5-a]pyridine] to `Cc1nn(C)c(Cl)c1S(=O)(=O)N1CCC(c2cn3ncnc3c(F)c2C)CC1` [Compound 318, 6-(1-((5-chloro-1,3-dimethyl-1H-pyrazol-4-yl)sulfonyl)piperidin-4-yl)-8-fluoro-7-methyl-[1,2,4]triazolo[1,5-a]pyridine], the IC50 falls from 43 nM to 15 nM (2.9-fold). The second is the more potent here.

`Cc1c(C2CCN(S(=O)(=O)c3cnn(C)c3C(F)F)CC2)cn2ncnc2c1F` [Compound 307, 6-(1-((5-(Difluoromethyl)-1-methyl-1H-pyrazol-4-yl)sulfonyl)piperidin-4-yl)-8-fluoro-7-methyl-[1,2,4]triazolo[1,5-a]pyridine] and `[2H]C([2H])([2H])n1nc(Cl)c(S(=O)(=O)N2CCC(c3cn4ncnc4c(F)c3C)CC2)c1C` [Compound 319, 6-(1-((3-chloro-5-methyl-1-(methyl-d3)-1H-pyrazol-4-yl)sulfonyl)piperidin-4-yl)-8-fluoro-7-methyl-[1,2,4]triazolo[1,5-a]pyridine] are within 1.5-fold of each other in IC50: 17 nM for the first, 12 nM for the second.

`Cc1cc2ncnn2cc1C1(O)CCN(S(=O)(=O)c2cnn(C)c2C)CC1` [Compound 308, 1-((1,5-Dimethyl-1H-pyrazol-4-yl)sulfonyl)-4-(7-methyl-[1,2,4]triazolo[1,5-a]pyridin-6-yl)piperidin-4-ol] and `Cc1cc2ncnn2cc1C1(O)CCN(S(=O)(=O)c2cnc(C)n2C)CC1` [Compound 309, 1-((1,2-dimethyl-1H-imidazol-5-yl)sulfonyl)-4-(7-methyl-[1,2,4]triazolo[1,5-a]pyridin-6-yl)piperidin-4-ol] cannot be ordered by IC50: over 10000 nM for the first, over 10000 nM for the second.

Compared with `Cc1cc2ncnn2cc1C1(O)CCN(S(=O)(=O)c2ccc3c(c2)CCO3)CC1` [Compound 310, 1-((2,3-dihydrobenzofuran-5-yl)sulfonyl)-4-(7-methyl-[1,2,4]triazolo[1,5-a]pyridin-6-yl)piperidin-4-ol], `Cc1cc2ncnn2cc1C1CCN(S(=O)(=O)c2c(Cl)nc3sccn23)CC1` [Compound 324, 6-chloro-5-((4-(7-methyl-[1,2,4]triazolo[1,5-a]pyridin-6-yl)piperidin-1-yl)sulfonyl)imidazo[2,1-b]thiazole] is lower in IC50: over 10000 nM for the first, 13 nM for the second. The second is the more potent here.

Going from `Cc1cc(S(=O)(=O)N2CCC(c3nn4ccnc4cc3C)CC2)c(C)s1` [Compound 311, 6-(1-((2,5-dimethylthiophen-3-yl)sulfonyl)piperidin-4-yl)-7-methylimidazo[1,2-b]pyridazine] to `Cc1cc2nccn2nc1C1CCN(S(=O)(=O)c2cnn(C(F)F)c2C)CC1` [Compound 312, 6-(1-((1-(difluoromethyl)-5-methyl-1H-pyrazol-4-yl)sulfonyl)piperidin-4-yl)-7-methylimidazo[1,2-b]pyridazine], the IC50 falls from 4900 nM to 877 nM (5.6-fold).

Compared with `Cc1cc2nc(C(F)F)nn2cc1C1=CCN(S(=O)(=O)c2cnn3c2CCCC3)CC1` [Compound 316, 2-(difluoromethyl)-7-methyl-6-(1-((4,5,6,7-tetrahydropyrazolo[1,5-a]pyridin-3-yl)sulfonyl)-1,2,3,6-tetrahydropyridin-4-yl)-[1,2,4]triazolo[1,5-a]pyridine], `Cc1ncc(S(=O)(=O)N2CC=C(c3cn4nc(C(F)F)nc4cc3C)CC2)s1` [Compound 317, 5-((4-(2-(Difluoromethyl)-7-methyl-[1,2,4]triazolo[1,5-a]pyridin-6-yl)-3,6-dihydropyridin-1(2H)-yl)sulfonyl)-2methylthiazole] is 5.8-fold higher in IC50: 1200 nM for the first, 6900 nM for the second. The first is the more potent here.

Going from `Cc1cc2ncnn2cc1C1CCN(S(=O)(=O)c2ncn(C)c2Cl)CC1` [Compound 321, 6-(1-((5-chloro-1-methyl-1H-imidazol-4-yl)sulfonyl)piperidin-4-yl)-7-methyl-[1,2,4]triazolo[1,5-a]pyridine] to `Cc1cc2ncnn2cc1C1CCN(S(=O)(=O)c2c(Cl)nn(C)c2C)CC1` [Compound 325, 6-(1-((3-chloro-1,5-dimethyl-1H-pyrazol-4-yl)sulfonyl)piperidin-4-yl)-7-methyl-[1,2,4]triazolo[1,5-a]pyridine], the IC50 falls from 1100 nM to 25 nM (44-fold). The second is the more potent here.

First: Cc1cc2ncnn2cc1C1CCN(S(=O)(=O)c2cnc3n2CCCC3)CC1 [Compound 322, 7-methyl-6-(1-((5,6,7,8-tetrahydroimidazo[1,2-a]pyridin-3-yl)sulfonyl)piperidin-4-yl)-[1,2,4]triazolo[1,5-a]pyridine]
Second: O=S(=O)(c1cnc2n1CCCC2)N1CCC(c2cn3ncnc3cc2F)CC1 [Compound 326, 7-fluoro-6-(1-((5,6,7,8-tetrahydroimidazo[1,2-a]pyridin-3-yl)sulfonyl)piperidin-4-yl)-[1,2,4]triazolo[1,5-a]pyridine]
The IC50 of the first is 10-fold lower: 9.8 nM for the first, 99 nM for the second. The first is the more potent here.

First: Cc1cc2ncnn2cc1C1CCN(S(=O)(=O)c2cnc3ccccn23)CC1 [Compound 323, 6-(1-(imidazo[1,2-a]pyridin-3-ylsulfonyl)piperidin-4-yl)-7-methyl-[1,2,4]triazolo[1,5-a]pyridine]
Second: O=S(=O)(c1cnc2ccccn12)N1CCC(c2cn3ncnc3cc2F)CC1 [Compound 327, 7-fluoro-6-(1-(imidazo[1,2-a]pyridin-3-ylsulfonyl)piperidin-4-yl)-[1,2,4]triazolo[1,5-a]pyridine]
The IC50 of the first is 48-fold lower: 16 nM for the first, 774 nM for the second.

Source: patent publication US20230183237A1, “COMPETITIVE AND NONCOMPETITIVE INHIBITORS OF THE MUSCARINIC ACETYLCHOLINE RECEPTOR M5” (Vanderbilt University, priority 2020, published 2023)
